Results reported in paper PMC2267855, “Site-directed mutagenesis of Arginine282 suggests how protons and peptides are co-transported by rabbit PepT1” (The International Journal of Biochemistry & Cell Biology, 2008).
Numbering of substitutions follows the chain as printed. Where a SMILES comes first, the peptide text is derived from it.

What was measured:
[1] = target: T1, wild-type rabbit PepT1 (Oryctolagus cuniculus, UniProt P36836); assay: Inhibition of [3H]-D-Phe-L-Gln uptake into Xenopus oocytes expressing wild-type PepT1 (competition, Ki); assay type: cell-based; conditions: wild-type PepT1, pHout 5.5, 0.4 μM [3H]-D-Phe-L-Gln, Xenopus oocytes; read-out: Ki (inhibition of [3H]-D-Phe-L-Gln uptake)
T1 construct: expressed in transfected cells; host or cells: Xenopus laevis oocytes injected with cRNA
T1 sequence (P36836 1-707): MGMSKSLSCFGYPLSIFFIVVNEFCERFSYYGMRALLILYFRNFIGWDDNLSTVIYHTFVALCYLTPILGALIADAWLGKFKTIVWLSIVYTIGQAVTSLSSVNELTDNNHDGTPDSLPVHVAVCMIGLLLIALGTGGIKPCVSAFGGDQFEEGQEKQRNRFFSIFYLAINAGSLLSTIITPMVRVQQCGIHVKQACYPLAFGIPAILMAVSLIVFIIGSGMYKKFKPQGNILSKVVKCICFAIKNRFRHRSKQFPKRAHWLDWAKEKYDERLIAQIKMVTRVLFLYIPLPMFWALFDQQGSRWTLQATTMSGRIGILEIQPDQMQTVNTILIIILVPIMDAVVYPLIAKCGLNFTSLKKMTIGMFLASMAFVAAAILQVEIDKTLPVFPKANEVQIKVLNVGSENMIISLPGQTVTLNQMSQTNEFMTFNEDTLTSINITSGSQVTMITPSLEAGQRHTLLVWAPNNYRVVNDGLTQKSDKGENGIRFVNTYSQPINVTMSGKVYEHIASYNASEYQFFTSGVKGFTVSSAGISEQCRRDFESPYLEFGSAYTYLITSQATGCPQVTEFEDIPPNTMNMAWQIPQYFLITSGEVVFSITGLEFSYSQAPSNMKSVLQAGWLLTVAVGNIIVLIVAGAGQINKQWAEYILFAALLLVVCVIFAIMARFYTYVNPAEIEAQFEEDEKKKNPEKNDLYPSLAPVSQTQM
Procedure: (§1) Zero-trans uptake of [^3H]-D-Phe-L-Gln (17.4 Ci/mmole, custom synthesised, Cambridge Research Biochemicals, Stockton-on-Tees, UK) was performed as previously described ([Meredith, 2004]). Briefly, 5 oocytes were incubated in 100 μl of uptake medium (95 mM NaCl, 2 mM KCl, 1 mM CaCl2, 0.42 mM MgCl2, 10 mM Tris/Hepes pH 7.4 or Tris/Mes pH 5.5) with tracer (0.4 μM) [^3H]-D-Phe-L-Gln. After incubation, the oocytes were washed sequentially five times in 1 ml of ice-cold 120 mM NaCl solution, lysed individually with 100 μl 2% (w/v) SDS and liquid scintillation counted. As a control non-injected oocytes were also incubated in uptake medium with [^3H]-D-Phe-L-Gln as above.
(§2) The affinity of wild-type and mutant PepT1 were assessed by competition studies with 0.4 μM [^3H]-D-Phe-L-Gln and Gly-L-Gln present in the uptake medium in concentrations from 0 to 2 mM using the protocol above, and the Ki calculated using the method of [Deves and Boyd (1989)].

[2] = target: T2, R282H-PepT1 (Oryctolagus cuniculus, UniProt P36836, R282H); assay: Inhibition of [3H]-D-Phe-L-Gln uptake into Xenopus oocytes expressing R282H-PepT1 (competition, Ki); assay type: cell-based, rabbit; conditions: pHout 5.5, 0.4 μM [3H]-D-Phe-L-Gln
T2 construct: expressed in transfected cells; host or cells: Xenopus laevis oocytes injected with cRNA
T2 sequence (P36836 1-707 R282H): T1 sequence (P36836 1-707) with R282H
Procedure: as §1, §2

[3] = target: T3, R282K-PepT1 (Oryctolagus cuniculus, UniProt P36836, R282K); assay: Inhibition of [3H]-D-Phe-L-Gln uptake into Xenopus oocytes expressing R282K-PepT1 (competition, Ki); assay type: cell-based, rabbit; conditions: pHout 5.5, 0.4 μM [3H]-D-Phe-L-Gln
T3 construct: expressed in transfected cells; host or cells: Xenopus laevis oocytes injected with cRNA
T3 sequence (P36836 1-707 R282K): T1 sequence (P36836 1-707) with R282K
Procedure: as §1, §2

SMILES: NCC(=O)N[C@@H](CCC(N)=O)C(=O)O [Gly-L-Gln] (H-Gly-Gln-OH)
- Ki [1]: 390 ± 220 µM
- Ki [2]: 300 ± 150 µM
- Ki [3]: 480 ± 260 µM
